Assay results taken from US10682371B2, “Small molecule conjugates specifically activated in tumor microenvironment for targeting and use thereof” (priority 2014, dated 2020).
Where two headings read alike, the source gives them in different places.

Columns and labels:
[1] = system: Human breast cancer MDA-MB435 tumor tissue homogenate; format: biochemical; conditions: for Activation Efficiencies (%): Human breast cancer MDA-MB435 tumor tissue homogenate (30 μg/ml), 1 mg/ml compound; for Activation ratio (%) in homogenates from different tumor tissues: Human breast cancer MDA-MB435
Method: (§1) At 37 °C, sample compounds were added into 100 μg acidized tumor tissue homogenates (pH6.0) in a concentration of 1 mg/ml.
(§2) At 37 °C, sample compounds were added into 100 μg acidized human breast cancer (MDA-MB435) tumor tissue homogenates (pH6.0) in a concentration of 1 mg/ml.
(§3) […], sample compounds were added into 100 μg acidized tumor tissue homogenates (pH6.0) in a concentration of 1 mg/ml.
as §2
(§4) At 37 °C, sample compounds were added into 100 μg acidized tumor tissue homogenates in a concentration of 1 mg/ml.
(§5) In the experiments, at 37 °C, compounds were added into proteases in 100 μg acidized tumor tissue homogenates in a concentration of 1 mg/ml. […] Meanwhile certain compounds produced in the screening were compared and their activation efficiency in same tissue was analyzed.
(§6) At 37° C., compounds were added into proteases in 100 μg acidized tumor tissue homogenates in a concentration of 1 mg/ml.

tumor CD8+ T cells = format: in vivo, C57 mice
How it was run: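 Flow cytometric ratio of CD8⁺ to CD45⁺ cells in dissociated tumour. Cell suspensions were labelled with CD45-PE and CD8-FITC for 1 h at room temperature, then washed twice in phosphate buffer with 1% fetal bovine serum.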

D121 lung tumor cells = format: in vivo, C57 mice; conditions: for Treatment effects on C57 mice, in words: compared to the control group and the other treatment groups; for Effect together with PDL1-antibody in promoting immunization and treatment, in words: combination with PDL1-antibody
How it was run: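 Endpoint is tumor inhibition rate from tumor size (mm^3) after weekly drug treatment for 4 weeks, begun once s.c. tumors from 10^6 live D121 cells reached 0.3-0.4 cm. Before challenge, C57 mice received three i.p. doses of 5×10^5 irradiated D121 cells, two weeks apart, or saline.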

[2] = system: Human prostate cancer PC-3 tumor tissue homogenate; format: biochemical; conditions: for Activation Efficiencies (%): Human prostate cancer PC-3 tumor tissue homogenate (30 μg/ml), 1 mg/ml compound; for Activation ratio (%) in homogenates from different tumor tissues: Human prostate cancer PC-3
Method: as §1, §3, §4, §5, §6

[3] = system: Human renal cancer OS-RC-2 tumor tissue homogenate; format: biochemical; conditions: for Activation Efficiencies (%): Human renal cancer OS-RC-2 tumor tissue homogenate (30 μg/ml), 1 mg/ml compound; for Activation ratio (%) in homogenates from different tumor tissues: Human renal cancer OS-RC-2
Method: as §1, §3, §4, §5, §6

[4] = system: Human colon cancer HT-29 tumor tissue homogenate; format: biochemical; conditions: for Activation ratio (%) in homogenates from different tumor tissues: Human colon cancer HT-29
Method: as §1, §3, §4, §5, §6

[5] = system: Human non-small cell lung cancer A549 tumor tissue homogenate; format: biochemical; conditions: for Activation Efficiencies (%): Human non-small cell lung cancer A549 tumor tissue homogenate (30 μg/ml), 1 mg/ml compound; for Activation ratio (%) in homogenates from different tumor tissues: Human non-small cell lung cancer A549
Method: as §1, §3, §4, §5, §6

[6] = system: Human ovarian cancer SK-OV-3 tumor tissue homogenate; format: biochemical; conditions: for Activation Efficiencies (%): Human ovarian cancer SK-OV-3 tumor tissue homogenate (30 μg/ml), 1 mg/ml compound; for Activation ratio (%) in homogenates from different tumor tissues: Human ovarian cancer SK-OV-3
Method: as §1, §3, §4, §5, §6

[7] = system: Human chronic leukemia K562 tumor tissue homogenate; format: biochemical; conditions: for Activation Efficiencies (%): Human chronic leukemia K562 tumor tissue homogenate (30 μg/ml), 1 mg/ml compound; for Activation ratio (%) in homogenates from different tumor tissues: Human chronic leukemia K562
Method: as §1, §3, §4, §5, §6

[8] = system: Human pancreatic cancer Panc-1 tumor tissue homogenate; format: biochemical; conditions: for Activation Efficiencies (%): Human pancreatic cancer Panc-1 tumor tissue homogenate (30 μg/ml), 1 mg/ml compound; for Activation ratio (%) in homogenates from different tumor tissues: Human pancreatic cancer Panc-1
Method: as §1, §3, §4, §5, §6

[9] = system: Human liver cancer Hepg2 tumor tissue homogenate; format: biochemical; conditions: for Activation Efficiencies (%): Human liver cancer Hepg2 tumor tissue homogenate (30 μg/ml), 1 mg/ml compound; for Activation ratio (%) in homogenates from different tumor tissues: Human liver cancer Hepg2
Method: as §1, §3, §4, §5, §6

[10] = D121 immunized C57 mice, 13.2 μmol/kg, ratio of CD8 positive cells in CD45 positive cells of tumor
[11] = D121 immunized C57 mice, 13.2 μmol/kg weekly, PDL1 antibody 5 μg/kg where combined, Day 18
[12] = 100 μg acidized homogenate pH6.0, 1 mg/ml, 37°
[13] = D121 immunized C57 mice, drugs weekly for 4 weeks, Day 18 (Example 23)
[14] = 1 mg/ml, acidized homogenate pH6.0, Paclitaxel release by HPLC
[15] = Table 27, immunized C57 mice, D121 lung tumor, drugs weekly for 4 weeks, Day 18
[16] = ratio of CD8 positive cells in CD45 positive cells of tumor, flow cytometry, drugs 13.2 μmol/kg, PDL1 antibody 5 μg/kg
[17] = Day 18, immunized C57 mice, drugs 13.2 μmol/kg, PDL1 antibody 5 μg/kg, weekly for 4 weeks

4-N—(N—(N—(N-(6-maleimido caproyl)-L-alanyl)-L-alanyl)-L-asparaginyl)-amino benzyl alcohol-MMAE-carbamate [Compound S6]
Activation Efficiencies (%) [1]: 25.6% | CD8: D45 (%) (tumor CD8+ T cells; [10]): 13.0% | Inhibitory rate on tumor Day 18 (D121 lung tumor cells; [11]): 29.47 | Size of tumor (mm^3) Day 18 (D121 lung tumor cells; [11]): 957.46 ± 257.87 mm^3 | Treatment effects on C57 mice, in words (D121 lung tumor cells): improved treatment effect as compared to the daunorubicin group | Activation Efficiencies (%) [2]: 13.2% | Activation Efficiencies (%) [3]: 20.4% | Activation Efficiencies (%) ([4]; Human colon cancer HT-29 tumor tissue homogenate (30 μg/ml), 1 mg/ml compound): 22.4% | Activation Efficiencies (%) [5]: 27.4% | Activation Efficiencies (%) [6]: 23.5% | Activation Efficiencies (%) [7]: 28.4% | Activation Efficiencies (%) [8]: 17.3% | Activation Efficiencies (%) [9]: 26.7%

COCCOCC(=O)N[C@H](C)C(=O)N[C@H](C)C(=O)N[C@H](CC(N)=O)C(=O)Nc1ccc(COC(=O)OC(C(=O)OC2C[C@@]3(O)C(OC(=O)c4ccccc4)[C@@H]4C5(OC(C)=O)COC5C[C@H](O)[C@@]4(C)C(=O)[C@H](OC(C)=O)C(=C2C)C3(C)C)[C@@H](NC(=O)c2ccccc2)c2ccccc2)cc1 (stereo in doubt) [S1′, 2-(2-methoxyethoxy) acetylamino-L-Ala-L-Ala-L-Asn-p-amino-benzyl-paclitaxel]
Activation ratio (%) in homogenates from different tumor tissues [1, 12]: 92.3% | activation efficiency (%) ([1]; human breast cancer (MDA-MB435) tumor tissue homogenates pH6.0, 100 μg, 1 mg/ml, control compounds vs S1′-S4′): 94.3% | CD8: CD45 (%) (tumor CD8+ T cells; D121 immunized C57 mice (Example 23), CD8 positive cells in CD45 positive cells of tumor): 19.6% | Size of tumor (mm^3) Day 18 (D121 lung tumor cells; [13]): 237.60 ± 156.42 mm^3 | inhibitory rate on tumor % Day 18 (D121 lung tumor cells; [13]): 84.9% | Effect together with PDL1-antibody in promoting immunization and treatment, in words (D121 lung tumor cells): excellent synergistic effect | Treatment effects on C57 mice, in words (D121 lung tumor cells): greatly improved | Activation ratio (%) in homogenates from different tumor tissues [2, 12]: 97.3% | Activation ratio (%) in homogenates from different tumor tissues [3, 12]: 86.4% | Activation ratio (%) in homogenates from different tumor tissues [4, 12]: 79.4% | Activation ratio (%) in homogenates from different tumor tissues [5, 12]: 86.4% | Activation ratio (%) in homogenates from different tumor tissues [6, 12]: 88.4% | Activation ratio (%) in homogenates from different tumor tissues [7, 12]: 64.7% | Activation ratio (%) in homogenates from different tumor tissues [8, 12]: 94.8% | Activation ratio (%) in homogenates from different tumor tissues [9, 12]: 95.3%

COCCOCC(=O)NCCCC[C@H](NC(=O)COCCOC)C(=O)N[C@H](C)C(=O)N[C@H](C)C(=O)N[C@H](CC(N)=O)C(=O)Nc1ccc(COC(=O)OC(C(=O)OC2C[C@@]3(O)[C@@H](OC(=O)c4ccccc4)[C@H]4[C@](C)(C(=O)[C@H](OC(C)=O)C(=C2C)C3(C)C)[C@@H](O)CC2OC[C@]24OC(C)=O)[C@@H](NC(=O)c2ccccc2)c2ccccc2)cc1 (stereo partly drawn) [Compound A1]
Activation ratio (%) in homogenates from different tumor tissues [1, 14]: 95.6% | activation efficiency (%) ([1]; Table 24, acidized human breast cancer (MDA-MB435) tumor tissue homogenates pH6.0, 1 mg/ml, Paclitaxel release by HPLC): 95.1% | CD8: CD45 (%) (tumor CD8+ T cells; Table 27, CD8 positive cells in CD45 positive cells of tumor, flow cytometry, immunized C57 mice, D121): 20.4% | Size of tumor (mm^3) Day 18 (D121 lung tumor cells; [15]): 261.36 ± 178.3 mm^3 | inhibitory rate on tumor % Day 18 (D121 lung tumor cells; [15]): 84.52% | Effect together with PDL1-antibody in promoting immunization and treatment, in words (D121 lung tumor cells): excellent synergistic effect | Treatment effects on C57 mice, in words (D121 lung tumor cells): greatly improved | Activation ratio (%) in homogenates from different tumor tissues [2, 14]: 100.3% | Activation ratio (%) in homogenates from different tumor tissues [3, 14]: 89.2% | Activation ratio (%) in homogenates from different tumor tissues [4, 14]: 82.4% | Activation ratio (%) in homogenates from different tumor tissues [5, 14]: 89.5% | Activation ratio (%) in homogenates from different tumor tissues [6, 14]: 91.4% | Activation ratio (%) in homogenates from different tumor tissues [7, 14]: 67.7% | Activation ratio (%) in homogenates from different tumor tissues [8, 14]: 97.8% | Activation ratio (%) in homogenates from different tumor tissues [9, 14]: 98.3%

COCCOCCOCCOCCOCCOCC(=O)N[C@H](C)C(=O)N[C@H](C)C(=O)N[C@H](CC(N)=O)C(=O)Nc1ccc(COC(=O)N2[C@H]3[C@@H]2CN2C4=C(C(=O)C(N)=C(C)C4=O)[C@H](COC(N)=O)[C@]32OC)cc1 [Compound E2]
Activation ratio (%) in homogenates from different tumor tissues ([1]; 37° C., 1 mg/ml): 90.6% | CD8: CD45 (%) (tumor CD8+ T cells; [16]): 19.7% | Size of tumor (mm^3) Day 18 (D121 lung tumor cells; [17]): 331.57 ± 124.45 mm^3 | inhibitory rate on tumor % Day 18 (D121 lung tumor cells; [17]): 83.87% | Treatment effects on C57 mice, in words (D121 lung tumor cells): greatly improved | Activation ratio (%) in homogenates from different tumor tissues ([2]; 37° C., 1 mg/ml): 86.4% | Activation ratio (%) in homogenates from different tumor tissues ([3]; 37° C., 1 mg/ml): 94.5% | Activation ratio (%) in homogenates from different tumor tissues ([4]; 37° C., 1 mg/ml): 96.1% | Activation ratio (%) in homogenates from different tumor tissues ([5]; 37° C., 1 mg/ml): 96.4% | Activation ratio (%) in homogenates from different tumor tissues ([6]; 37° C., 1 mg/ml): 97.6% | Activation ratio (%) in homogenates from different tumor tissues ([8]; 37° C., 1 mg/ml): 84.6% | Activation ratio (%) in homogenates from different tumor tissues ([9]; 37° C., 1 mg/ml): 94.8%

COc1cccc2c1C(=O)c1c(O)c3c(c(O)c1C2=O)C[C@@](O)(C(C)=O)C[C@@H]3O[C@H]1C[C@H](NC(=O)OCc2ccc(NC(=O)[C@H](CC(N)=O)NC(=O)[C@H](C)NC(=O)[C@H](C)NC(=O)CCCCCN3C(=O)C=CC3=O)cc2)[C@H](O)[C@H](C)O1 [Compound S5, 4-N—(N—(N—(N-(6-maleimidocaproyl)-L-alanyl)-L-alanyl)-L-asparaginyl)-amino benzyl alcohol-daunorubicin-carbamate]
Activation Efficiencies (%) [1]: 96.7% | CD8: CD45 (%) (tumor CD8+ T cells; [10]): 17.4% | Size of tumor (mm^3) Day 18 (D121 lung tumor cells; [11]): 379.75 ± 125.64 mm^3 | Treatment effects on C57 mice, in words (D121 lung tumor cells): greatly improved | Activation Efficiencies (%) [2]: 97.3% | Activation Efficiencies (%) [3]: 98.3% | Activation Efficiencies (%) [5]: 96.7% | Activation Efficiencies (%) [6]: 97.4% | Activation Efficiencies (%) [7]: 73.5% | Activation Efficiencies (%) [8]: 97.4% | Activation Efficiencies (%) [9]: 67.3%

CO[C@@]12[C@H](COC(N)=O)C3=C(C(=O)C(C)=C(N)C3=O)N1C[C@@H]1N[C@@H]12 [mitomycin, reference compound]
CD8: CD45 (%) (tumor CD8+ T cells; [16]): 6.7% | Size of tumor (mm^3) Day 18 (D121 lung tumor cells; [17]): 1210.28 ± 368.45 mm^3 | inhibitory rate on tumor % Day 18 (D121 lung tumor cells; [17]): 28.62%
